Values of other authors in patent publication US20140141213A1, “PHOTOCURABLE INK COMPOSITION, INK JET RECORDING METHOD, RECORDED MATTER, INK SET, INK CARTRIDGE, AND RECORDING APPARATUS” (Seiko Epson Corporation, priority 2009, published 2014).

settings: primary irritation index

Row | Molecule | P.I.I
1 | C=C(C)C(=O)OCCOCCOC(=O)C(=C)C [Diethylene glycol dimethacrylate] | 0.5
2 | Polyethylene glycol #400 diacrylate | 0.4
3 | C=C(C)C(=O)OCC(O)COC(=O)C(=C)C [2-Hydroxy-1,3-dimethacryloxypropane] | 0.6
4 | C=C(C)C(=O)OCC(C)(C)COC(=O)C(=C)C [Neopentyl glycol dimethacrylate] | 0.0
5 | C=CC(=O)OCC1COC(C)(CC(C)C)O1 (centres unmarked) [(2-Methyl-2-isobutyl-1,3-dioxolane-4-yl)methyl acrylate] | 1.0
6 | C=CC(=O)OCC(C)OCC(C)OCC(C)OC(=O)C=C (centres unmarked) [Tripropylene glycol diacrylate] | 1.6
7 | C=C(C)C(=O)OCC(CC)(COC(=O)C(=C)C)COC(=O)C(=C)C [Trimethylolpropane trimethacrylate] | 0.8
8 | Trimethylolpropane-modified triacrylate | 1.5
9 | C=C(C)C(=O)OCCOC(=O)C(=C)C [Ethylene glycol dimethacrylate] | 0.6
10 | C=C(C)C(=O)OCCCCCCOC(=O)C(=C)C [1,6-Hexanediol dimethacrylate] | 0.5
11 | C=CC(=O)OCC1COC(C)(CC)O1 (centres unmarked) [(2-Methyl-2-ethyl-1,3-dioxolane-4-yl)methyl acrylate] | 1.3
12 | C=CC(=O)OCCCCCCCCCOC(=O)C=C [1,9-Nonanediol diacrylate] | 2.0
13 | C=CC(=O)O[C@@H]1C[C@H]2CC[C@]1(C)C2(C)C [Isobornyl acrylate] | 0.6
14 | C=CC(=O)OCCOc1ccccc1 [Phenoxyethyl acrylate] | 1.7
15 | Trimethylolpropane PO-modified triacrylate | 0.1
16 | C=CC(=O)OCCOCCOC [Methoxy diethylene glycol monoacrylate] | 0.7
17 | C=C(C)C(=O)OCCOCCOCCOCCOC(=O)C(=C)C [Tetraethylene glycol dimethacrylate] | 0.5
